Measurements from patent US6890960B1, “Vetiver oil extracts as termite repellent and toxicant” (Board of Supervisors of Louisiana State University and …, priority 1999, dated 2005).
Like-named read-outs stand apart in the source and are kept apart here.

Legend:
[1] = system: Formosan subterranean termites; test: Feeding and tunneling experiment with treated balsa wood; type: in vivo, Coptotermes formosanus; conditions: data not shown
Method: Balsa wood (5 cm×5 cm×0.5 mm) was soaked for 1 hr in a 1% ethanol solution of either vetiver oil, nootkatone, TIM-BOR®, or an ethanol control. The treated wood was then dried and allowed to air until used in the experiments. The experiments were run at one, three, and six months after the wood was treated. The feeding and tunneling experimental procedure was as described in Example 2, except that in place of the filter paper as food for the termites, treated balsa wood was placed in each end compartment; and untreated sand was placed in all three chambers. Into the center chamber was added 225 workers and 25 soldiers collected from two large Formosan termite colonies in New Orleans, La. Three replicate containers for each of the two colonies and for each treatment of balsa wood were monitored for 8 days. Tunneling activity was periodically checked on days 3, 5, and 7 by scanning the bottoms of the containers. On day 8, the balsa wood was removed and weighed to determine wood consumption.

[2] = system: humans; conditions: use in perfumery and flavor industries; cited from earlier work
[3] = system: Formosan subterranean termites; type: in vivo; conditions: for Worker Mortality, Mean ± S.D.: workers only
Method: The amount of nootkatone isolated from the vetiver oil was insufficient to test for termite repellant activity. Nootkatone was therefore purchased from a commercial source (Lancaster Synthesis Inc., Windham, N.H.). A three-chambered plastic container was used as described above in Example 2. A small hole was melted at the bottom of each of the two inner walls to connect the chambers. Four replicate chambers were used for each concentration of nootkatone (μg/g of sand) tested: 0, 10 μg/g, 20 μg/g, 100 μg/g, and 200 μg/g. For each concentration, the nootkatone in 25 ml ethyl alcohol was mixed with 500 g #4 blasting sand as described in Example 2. The sand was dried overnight. The next day, 115 g of treated sand was added to the middle chamber; 115 g untreated sand was added to one end chamber, and a weighted filter paper (Whatman #1, 55 mm) was placed in the opposite end chamber. The filter paper had been dried at 70° C. for 3 hr and cooled to room temperature before weighing. Then 10 ml ddH2O was added to each chamber with sand and 200 μl ddH2O was added to the filter paper. Four containers with no nootkatone served as negative controls. Fifty worker and 5 soldier termites from a single colony collected in Algiers, La., were placed in each untreated sand chamber. The chambers were covered and kept in a dark incubator at 29° C.
On the 16th day, the number of live termites was counted, and the bottom of each container was scanned to determine tunneling length as described in Example 2. The filter paper from each container was removed, cleaned, dried at 70° C. for 3 hr, cooled, and finally weighed.
Between-treatment differences in filter paper weight, mortality, and tunnel length in the treated compartments were compared by analysis of variance (ANOVA) and Tukey's Studentized Range Test. The results are presented in Tables 4, 5, and 6 and in FIGS. 1-3.

[4] = system: termites; test: Quick petri dish termite distribution assay of α-cedrene (treated vs untreated sand); type: in vivo; conditions: 100 μg/dish
Method: The termite bio-activity of α-cedrene, a component of vetiver oil, was tested using a commercially available product (Fluka, a division of Sigma-Aldrich, Inc., St. Louis, Mo.). A new method for screening compounds for termite bio-activity was developed that was faster than the bioassay described in Example 2. Five cm diameter petri dishes with lids were used. Two ml of hot agar solution (1.5 g/100 ml ddH2O) was spread evenly in the bottom of each dish and allowed to cool. The agar solution provided moisture for the termites and held the sand in place. The sand was autoclaved for 30 min, the alcohol with sample added, and dried in an oven. For three dishes, one half of the bottom of each dish was covered with 1.5 g treated sand mixed with a total of 100 μg α-cedrene per dish, dissolved in 250 μl ethanol, and the other half with 1.5 g untreated sand (only ethanol). The sand completely covered the agar, but was not thick enough to conceal tunneling termites. Three dishes were prepared as a control with only untreated sand in each side. Finally, ten termites were added to each dish, and the dishes were covered to eliminate light.
The termite distribution in each dish, measured by counting the number of termites on the untreated half of the dish, was examined each hour for up to 8 hr. […] Therefore the extract was considered a repellent. The extract was considered toxic if some or all termites behaved sluggishly, were moribund or dead.

For `C=C(C)C1CCC2=CC(=O)CC(C)C2(C)C1` (stereo not shown) [nootkatone, 4,4a5,6,7,8-hexahydro-6-isopropenyl-4,4a-dimethyl-2(3H)-naphthalenone], the “ranking of effect on wood consumption” value ([1]; 1 and 3 month interval after wood treatment) was “greatest effect on decreasing wood consumption”, the “wood consumption vs control group” value ([1]; balsa wood soaked in 1% ethanol solution, 1, 3 and 6 months after treatment, day 8) was “consumed less wood than the control group” and the “effectiveness as a termite repellent” value ([1]; six months after the initial treatment of the wood sample) was “retained their effectiveness”. The “reduction of wood consumption compared with borate solution” value ([1]; six months after wood treatment) was “as effective as the borate solution”, the “tunneling activity of the termites” value ([1]; treated balsa wood, even after three months) was “substantially reduced with vetiver oil and especially with nootkatone” and the toxicity to humans [2] was “essentially non-toxic to humans”. For the same molecule, the “Filter Paper Consumption, Mean ± S.D.” value ([3]; 10 μg/gm sand, 16th day) was 0.0019 ± 0.002641 gm, the “Tunnel Length in Treated Compartment, Mean ± S.D.” value (“Tunnel Length” for short) ([3]; 10 μg/gm sand, 16th day) was 7.225 ± 5.155 cm and the “Worker Mortality, Mean ± S.D.” value ([3]; 10 μg/gm sand, 16th day) was 88.50 ± 10.12. The “Filter Paper Consumption, Mean ± S.D.” value ([3]; 20 μg/gm sand, 16th day) was 0.000525 ± 0.000709 gm, the “Tunnel Length” value ([3]; 20 μg/gm sand, 16th day) was 0.000 ± 0.000 cm and the “Worker Mortality, Mean ± S.D.” value ([3]; 20 μg/gm sand, 16th day) was 87.00 ± 18.22. The “Filter Paper Consumption, Mean ± S.D.” value ([3]; 100 μg/gm sand, 16th day) was 0.000025 ± 0.000050 gm, the “Tunnel Length” value ([3]; 100 μg/gm sand, 16th day) was 0.000 ± 0.000 cm and the “Worker Mortality, Mean ± S.D.” value ([3]; 100 μg/gm sand, 16th day) was 90.50 ± 11.70. The “Filter Paper Consumption, Mean ± S.D.” value ([3]; 200 μg/gm sand, 16th day) was 0.000275 ± 0.00055 gm, the “Tunnel Length” value ([3]; 200 μg/gm sand, 16th day) was 0.000 ± 0.000 cm and the “Worker Mortality, Mean ± S.D.” value ([3]; 200 μg/gm sand, 16th day) was 95.00 ± 8.718. The worker mortality ([3]; all chambers where the nootkatone concentration was ≦100 μg/g sand) was “Ninety percent mortality or greater”, the “tunneling in the middle chamber” value ([3]; concentrations higher than 10 μg/g, 16th day) was “no tunneling was visible” and the “consumption of filter paper” value ([3]; concentrations higher than 20 μg/g) was “Almost no consumption of filter paper”. For the same molecule, the “lowest concentration effective as repellent and toxicant (decreased tunneling and feeding, increased mortality)” value ([3]; in sand) was 10 µg/g, the “feeding as measured by loss of filter paper weight vs control” value ([3]; lowest concentration (10 μg/g)) was “significantly decreased feeding” and the “tunneling activity in middle chamber” value ([3]; lowest concentration of 10 μg/g, 16th day) was “substantially decreased the tunneling activity”.

For `CC1=CC[C@@]23C[C@@H]1C(C)(C)[C@@H]2CC[C@H]3C` [α-Cedrene, α-cedrene], the termite deaths [4] was “None of the termites died”, the repellency for termites ([4]; 2-3 h time frame) was “weak repellent” and the “Percent of termites on the untreated side (sum of the three replicates)” value (“Percent of termites” for short) ([4]; 1 hr) was 50%. The “Percent of termites” value ([4]; 2 hr) was 93.3%, the “Percent of termites” value ([4]; 3 hr) was 86.7% and the “Percent of termites” value ([4]; 4 hr) was 63.3%. The “Percent of termites” value ([4]; 24 hr) was 63.3%.
